Experimental data as given in patent publication US6525059B1, “Substituted pyrazoles as p38 kinase inhibitors” (G. D. Searle & Company, priority 1998, dated 2003).
pIC50: −log10 of the molar value.

test system: TNF-α; assay: LPS stimulation of TNF production by U937 cells; type: cell-based, human; conditions: @ 1.0 uM
Experimental: Fifty million cells in 100 ml media were induced to terminal monocytic differentiation by 24 hour incubation with 20 ng/ml phorbol 12-myristate 13-acetate (Sigma). The cells were washed by centrifugation (200×g for 5 min) and resuspended in 100 ml fresh medium. After 24-48 hours, the cells were harvested, centrifuged, and resuspended in culture medium at 2 million cells/ml.
Compounds were prepared as 10 mM stock solutions in DMSO and diluted in culture medium to yield a final DMSO concentration of 0.1% in the cell assay. LPS (E coli, 100 ng/ml final concentration) was then added at a volume of 0.02 ml. After 4 hour incubation at 37° C., the amount of TNF-α released in the culture medium was quantitated by ELISA. Inhibitory potency is expressed as IC50 (μM).
In vitro whole cell assay for measuring the ability of the compounds to inhibit TNF production in human U937 cells stimulated with LPS are shown in the column identified as: […]

| SMILES | U937 Cell % inhib @ conc. [% @ 1.0 uM] |
| --- | --- |
| Cc1ccc(C(=O)N[C@H](C)c2[nH]nc(-c3ccc(F)cc3)c2-c2ccncc2)cc1 [Example B-0494] | 30.0 |

same assay, conditions: @ 1.0 uM; TNF production, LPS-stimulated U937 cells

| SMILES | U937 Cell % inhib @ conc. (uM) [% @ 1.0 uM] |
| --- | --- |
| Cc1noc(C)c1S(=O)(=O)NCCCc1[nH]nc(-c2ccc(F)cc2)c1-c1ccncc1 [Example B-1281] | 8.0 |

same assay, conditions: Homo sapiens, U-937, @ 1.0 uM; read-out: U937 Cell % inhib @ conc.

| SMILES | inhibition at 1 µM [%] |
| --- | --- |
| O=C(NCc1[nH]nc(-c2ccc(F)cc2)c1-c1ccncc1)c1cccs1 [Example B-0193] | 6 |
| O=S(=O)(NCc1[nH]nc(-c2ccc(F)cc2)c1-c1ccncc1)c1ccccc1Br [Example B-0234] | 68 |
| C[C@@H](NS(=O)(=O)c1ccccc1Br)c1[nH]nc(-c2ccc(F)cc2)c1-c1ccncc1 [Example B-0454] | 80 |
| Cc1noc(C)c1C(=O)N[C@H](C)c1[nH]nc(-c2ccc(F)cc2)c1-c1ccncc1 [Example B-0529] | 73 |
| COc1ccc(NC(=O)N[C@H](C)c2[nH]nc(-c3ccc(F)cc3)c2-c2ccncc2)c(OC)c1 [Example B-0422] | 40 |
| Cc1noc(C)c1C(=O)NCc1[nH]nc(-c2ccc(F)cc2)c1-c1ccncc1 [Example B-0304] | 28 |
| C[C@@H](NS(=O)(=O)c1cc(Cl)cc(Cl)c1)c1[nH]nc(-c2ccc(F)cc2)c1-c1ccncc1 [Example B-0464] | 91 |
| C[C@@H](NC(=O)c1ccccn1)c1[nH]nc(-c2ccc(F)cc2)c1-c1ccncc1 [Example B-0379] | 24 |
| C[C@@H](NS(=O)(=O)Cc1ccccc1[N+](=O)[O-])c1[nH]nc(-c2ccc(F)cc2)c1-c1ccncc1 [Example B-0442] | 91 |
| Cc1cccc(Cl)c1S(=O)(=O)N[C@H](C)c1[nH]nc(-c2ccc(F)cc2)c1-c1ccncc1 [Example B-0467] | 77 |
| C[C@@H](NS(=O)(=O)c1cccc(Cl)c1)c1[nH]nc(-c2ccc(F)cc2)c1-c1ccncc1 [Example B-0462] | 97 |
| O=S(=O)(NCc1[nH]nc(-c2ccc(F)cc2)c1-c1ccncc1)c1ccc(C(F)(F)F)cc1 [Example B-0237] | 60 |
| C[C@@H](NS(=O)(=O)c1ccc(Br)cc1)c1[nH]nc(-c2ccc(F)cc2)c1-c1ccncc1 [Example B-0432] | 89 |
| C[C@@H](NS(=O)(=O)c1ccccc1)c1[nH]nc(-c2ccc(F)cc2)c1-c1ccncc1 [Example B-0386] | 54 |
| Cc1ccccc1S(=O)(=O)NCc1[nH]nc(-c2ccc(F)cc2)c1-c1ccncc1 [Example B-0245] | 24 |
| C[C@@H](NC(=O)N(C)c1ccccc1)c1[nH]nc(-c2ccc(F)cc2)c1-c1ccncc1 [Example B-0409] | 30 |
| C[C@@H](NS(=O)(=O)/C=C/c1ccccc1)c1[nH]nc(-c2ccc(F)cc2)c1-c1ccncc1 [Example B-0388] | 36 |

same assay, conditions: Homo sapiens, U-937, LPS-stimulated U937 cells; read-out: U937 Cell Assay IC50

| SMILES | pIC50 |
| --- | --- |
| Cc1ccc(-c2[nH]nc(C)c2-c2ccncc2)cc1 [Example A-5] | 6.56 |

same assay, conditions: Homo sapiens, U-937, LPS-stimulated U937 cells; read-out: U937 IC50

| SMILES | pIC50 |
| --- | --- |
| OCCn1ncc(-c2ccnc(NCc3ccc(F)cc3)c2)c1-c1ccc(F)cc1 [Example A-290, 5-(4-fluorophenyl)-4-[2-[[(4-fluorophenyl)methyl]amino]-4-pyridinyl]-1H-pyrazole-1-ethanol] | 5.22 |

same assay, conditions: Homo sapiens, U-937, TNF production, LPS-stimulated human U937 cells; read-out: U937 Cell IC50

| SMILES | pIC50 |
| --- | --- |
| O=C(NCc1[nH]nc(-c2ccc(F)cc2)c1-c1ccncc1)c1cccs1 [Example B-0208] | < 6.00 |

target: T1, human p38 kinase alpha (Homo sapiens, UniProt Q16539); assay: p38 kinase in vitro assay, phosphorylation of biotinylated PHAS-I with gamma 32P-ATP; type: biochemical; conditions: @ 1.0 uM
T1 construct: The coding region of the human p38a cDNA was obtained by PCR-amplification from RNA isolated from the human monocyte cell line THP.1; GST (N); made in house; host or cells: E. coli DH10B
Experimental: The ability of compounds to inhibit human p38 kinase alpha was evaluated using two in vitro assay methods. In the first method activated human p38 kinase alpha phosphorylates a biotinylated substrate, PHAS-I (phosphorylated heat and acid stable protein-insulin inducible), in the presence of gamma ^32P-ATP (^32P-ATP). PHAS-I was biotinylated prior to the assay and provides a means of capturing the substrate which is phosphorylated during the assay. p38 Kinase was activated by MKK6. Compounds were tested in 10 fold serial dilutions over the range of 100 μM to 0.001 μM using 1% DMSO. Each concentration of inhibitor was tested in triplicate.
All reactions were carried out in 96 well polypropylene plates. Each reaction well contained 25 mM HEPES pH 7.5, 10 mM magnesium acetate and 50 μM unlabeled ATP. […] The reaction proceeded either for one hour or overnight at 30° C.
Following incubation, 20 μl of reaction mixture was transferred to a high capacity streptavidin coated filter plate (SAM-streptavidin-matrix, Promega) prewetted with phosphate buffered saline. […] Filter plates were air dried and 20 μl of scintillant was added. The plates were sealed and counted.

T1 sequence (Q16539 whole entry): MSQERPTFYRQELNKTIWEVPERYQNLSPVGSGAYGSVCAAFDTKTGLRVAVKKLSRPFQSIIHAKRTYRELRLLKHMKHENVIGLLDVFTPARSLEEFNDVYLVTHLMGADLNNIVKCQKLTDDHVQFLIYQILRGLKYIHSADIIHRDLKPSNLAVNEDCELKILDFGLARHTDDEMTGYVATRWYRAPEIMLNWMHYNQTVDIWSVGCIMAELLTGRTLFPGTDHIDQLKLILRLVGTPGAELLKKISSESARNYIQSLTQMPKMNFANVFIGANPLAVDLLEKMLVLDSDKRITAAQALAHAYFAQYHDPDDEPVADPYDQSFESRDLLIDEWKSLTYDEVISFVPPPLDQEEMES

| SMILES | P38 alpha kinase % inhib @ conc. [% @ 1.0 uM] |
| --- | --- |
| CCC(C(=O)NCc1[nH]nc(-c2ccc(F)cc2)c1-c1ccncc1)c1ccccc1 (stereo not drawn) [Example B-0048] | 94.0 |
| O=C(NCc1[nH]nc(-c2ccc(F)cc2)c1-c1ccncc1)C1CCCN1C(=O)C(F)(F)F (stereo not drawn) [Example B-0094] | 96 |
| O=C(NCc1[nH]nc(-c2ccc(F)cc2)c1-c1ccncc1)c1cc(C(F)(F)F)ccc1F [Example B-0050] | 73 |

same assay, conditions: @ 1.0 uM; read-out: P38 alpha kinase % inhib @ conc.

| SMILES | inhibition at 1 µM [%] |
| --- | --- |
| COc1ccc(NC(=O)NCc2[nH]nc(-c3ccc(F)cc3)c2-c2ccncc2)c(OC)c1 [Example B-0167] | 40 |
| O=C(NCc1[nH]nc(-c2ccc(F)cc2)c1-c1ccncc1)c1ccc(F)cc1C(F)(F)F [Example B-0062] | 94 |
| COc1ccc(OC)c(S(=O)(=O)NCc2[nH]nc(-c3ccc(F)cc3)c2-c2ccncc2)c1 [Example B-0130] | 69 |
| COc1cc(C)c(S(=O)(=O)NCc2[nH]nc(-c3ccc(F)cc3)c2-c2ccncc2)c(C)c1C [Example B-0137] | 41 |
| N#Cc1ccccc1S(=O)(=O)NCc1[nH]nc(-c2ccc(F)cc2)c1-c1ccncc1 [Example B-0127] | 82 |
| COc1cc(OC)cc(C(=O)NCc2[nH]nc(-c3ccc(F)cc3)c2-c2ccncc2)c1 [Example B-0072] | 77 |

same assay, conditions: @ 10.0 uM; read-out: P38 alpha kinase % inhib @ conc.

| SMILES | inhibition at 10 µM [%] |
| --- | --- |
| CCOC(=O)C(C)NC(=O)NCc1[nH]nc(-c2ccc(F)cc2)c1-c1ccncc1 (stereo not drawn) [Example B-0165] | 70 |
| O=C(NCc1[nH]nc(-c2ccc(F)cc2)c1-c1ccncc1)Nc1ccc(Cl)c(Cl)c1 [Example B-0173] | 33 |

same assay, conditions: p38α in vitro, PHAS-I assay procedure; read-out: p38^1 IC50

| SMILES | pIC50 |
| --- | --- |
| Fc1ccc(CNc2cc(-c3cn(CCN4CCOCC4)nc3-c3ccc(F)cc3)ccn2)cc1 [Example A-276, N-[(4-fluorophenyl)methyl]-4-[3(or 5)-(4-fluorophenyl)-1-[[2-(4-morpholinyl)ethyl]-1H-pyrazol-4-yl]-2-pyridinamine] | 6.75 |
| OCCn1cc(-c2ccnc(NCc3ccc(F)cc3)c2)c(-c2ccc(F)cc2)n1 [Example A-283, 3 (or 5)-(4-fluorophenyl)-4-[2-[[(4-fluorophenyl)methyl]amino]-4-pyridinyl]-1H-pyrazole-1-ethanol] | > 7.00 |
| Fc1ccc(-c2n[nH]cc2-c2ccnc(NC3CCNCC3)c2)cc1 [Example A-277, 4-[3-(4-fluorophenyl)-1H-pyrazol-4-yl]-N-4-piperadinyl-2-pyridinamine] | 7.59 |

same assay, conditions: read-out: P38 alpha kinase IC50

| SMILES | pIC50 |
| --- | --- |
| NC(=O)NC(Cc1ccccc1)c1[nH]nc(-c2ccc(F)cc2)c1-c1ccncc1 (stereo not drawn) [Example B-0769] | 4.90 |
| COc1ccc(Cl)cc1S(=O)(=O)NCc1[nH]nc(-c2ccc(F)cc2)c1-c1ccncc1 [Example B-0253] | 7.21 |
| CCS(=O)(=O)NC(Cc1ccccc1)c1[nH]nc(-c2ccc(F)cc2)c1-c1ccncc1 (stereo not drawn) [Example B-0717] | 5.37 |
| O=C(NCc1[nH]nc(-c2ccc(F)cc2)c1-c1ccncc1)c1ccccc1F [Example B-0297] | 6.11 |
| CCCS(=O)(=O)N[C@H](C)c1[nH]nc(-c2ccc(F)cc2)c1-c1ccncc1 [Example B-0393] | 7.37 |
| Clc1ccc(-c2n[nH]c(C3CCNCC3)c2-c2ccncn2)cc1 [Example C-136] | 7.49 |
| CCNC(=O)N[C@H](C)c1[nH]nc(-c2ccc(F)cc2)c1-c1ccncc1 [Example B-0421] | 6.34 |
| Cc1ccc(C)c(S(=O)(=O)NCc2[nH]nc(-c3ccc(F)cc3)c2-c2ccncc2)c1 [Example B-0244] | 7.70 |
| C[C@@H](NC(=O)C1CC1)c1[nH]nc(-c2ccc(F)cc2)c1-c1ccncc1 [Example B-0361] | 6.48 |
| Cc1ccc(S(C)(=O)=O)cc1S(=O)(=O)N[C@H](C)c1[nH]nc(-c2ccc(F)cc2)c1-c1ccncc1 [Example B-0491] | 6.37 |
| C[C@@H](NS(=O)(=O)c1ccc(Cl)cc1Cl)c1[nH]nc(-c2ccc(F)cc2)c1-c1ccncc1 [Example B-0448] | 6.40 |
| CC(=O)N[C@H](C)c1[nH]nc(-c2ccc(F)cc2)c1-c1ccncc1 [Example B-0359] | 6.35 |
| COc1ccc(CC(=O)N[C@H](C)c2[nH]nc(-c3ccc(F)cc3)c2-c2ccncc2)cc1OC [Example B-0371] | 6.31 |
| CS(=O)(=O)NC(Cc1ccccc1)c1[nH]nc(-c2ccc(F)cc2)c1-c1ccncc1 (stereo not drawn) [Example B-0763] | 7.82 |
| CC(NS(=O)(=O)CC12CCC(CC1=O)C2(C)C)c1[nH]nc(-c2ccc(F)cc2)c1-c1ccncc1 (stereo not drawn) [Example B-0435] | 6.52 |
| N#Cc1cccc(C(=O)N2CCC(c3[nH]nc(-c4ccc(F)cc4)c3-c3ccncc3)CC2)c1 [Example B-1396] | 6.26 |
| C[C@@H](NC(=O)NCCc1ccccc1)c1[nH]nc(-c2ccc(F)cc2)c1-c1ccncc1 [Example B-0416] | 6.49 |
| C[C@@H](NC(=O)c1cccc(Cl)c1)c1[nH]nc(-c2ccc(F)cc2)c1-c1ccncc1 [Example B-0525] | 6.80 |
